Source: patent US20080009418A1, “Selective Inhibitors” (Alchemia LTD., priority 2004, published 2008)

Legend:
[1] = target: T1, Human δ-opioid (DOP) (Homo sapiens, UniProt P41143); assay: Radioligand binding, human δ-opioid (DOP) membranes, FlashPlate, [3H]-Bremazocine; conditions: compound at 10 μM, [3H]-Bremazocine
T1 construct: purchased Perkin Elmer Biosignal
Method in brief: (§1)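 Cloned human receptor membranes were coated onto FlashPlate wells and incubated with radioligand and compound (added from a 0.5 mM DMSO daughter plate) for 1 hour at room temperature in the dark. Scintillation counting gave percent inhibition, with DMSO defining total and reference ligand defining non-specific binding.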

[2] = target: T2, Human κ-Opioid (KOP) (Homo sapiens, UniProt P41145); assay: Radioligand binding, human κ-opioid (KOP) membranes, filtration, [3H]-Diprenorphine; conditions: compound at 10 μM, [3H]-Diprenorphine
T2 construct: purchased Perkin Elmer Biosignal
T2 sequence (P41145 whole entry): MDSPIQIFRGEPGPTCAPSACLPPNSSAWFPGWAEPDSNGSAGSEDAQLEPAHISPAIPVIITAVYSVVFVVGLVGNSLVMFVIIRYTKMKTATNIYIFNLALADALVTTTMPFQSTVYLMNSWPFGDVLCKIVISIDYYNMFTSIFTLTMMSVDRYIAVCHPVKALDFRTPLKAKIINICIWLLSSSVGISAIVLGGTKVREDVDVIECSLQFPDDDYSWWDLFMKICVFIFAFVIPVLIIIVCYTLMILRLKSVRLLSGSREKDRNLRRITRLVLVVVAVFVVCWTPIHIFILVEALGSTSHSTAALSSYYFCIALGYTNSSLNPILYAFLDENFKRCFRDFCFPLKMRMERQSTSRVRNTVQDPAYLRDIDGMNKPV
Method in brief: (§2)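 Filtration binding on cloned human receptor membranes (1 Unit/well), [125I]-Substance P for NK1 and [3H]-Diprenorphine for KOP, 1 h at room temperature. Filters PEI-presoaked, washed with cold 50 mM Tris-HCl pH 7.4, counted by scintillation; percent inhibition calculated, reference ligand defining non-specific binding.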

[3] = target: T3, Human Melanocortin (MC3) (Homo sapiens, UniProt P41968); assay: Radioligand binding, human melanocortin MC3 membranes, FlashPlate, [125I]-NDP-αMSH; conditions: compound at 10 μM, [125I]-NDP-αMSH
T3 construct: purchased Perkin Elmer Biosignal
T3 sequence (P41968 whole entry): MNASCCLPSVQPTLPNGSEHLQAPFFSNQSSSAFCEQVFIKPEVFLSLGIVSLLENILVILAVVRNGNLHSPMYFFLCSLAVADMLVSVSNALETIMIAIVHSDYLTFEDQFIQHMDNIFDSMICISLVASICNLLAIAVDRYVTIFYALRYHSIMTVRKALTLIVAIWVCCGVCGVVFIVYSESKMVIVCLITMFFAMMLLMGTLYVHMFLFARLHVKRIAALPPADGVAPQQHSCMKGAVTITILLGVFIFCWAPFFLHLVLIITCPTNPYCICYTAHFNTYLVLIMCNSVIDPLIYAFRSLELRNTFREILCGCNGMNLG
Method in brief: as §1

[4] = target: T4, Human Melanocortin (MC4) (Homo sapiens, UniProt P32245); assay: Radioligand binding, human melanocortin MC4 membranes, FlashPlate, [125I]-NDP-αMSH; conditions: compound at 10 μM, [125I]-NDP-αMSH
T4 construct: purchased Perkin Elmer Biosignal
T4 sequence (P32245 whole entry): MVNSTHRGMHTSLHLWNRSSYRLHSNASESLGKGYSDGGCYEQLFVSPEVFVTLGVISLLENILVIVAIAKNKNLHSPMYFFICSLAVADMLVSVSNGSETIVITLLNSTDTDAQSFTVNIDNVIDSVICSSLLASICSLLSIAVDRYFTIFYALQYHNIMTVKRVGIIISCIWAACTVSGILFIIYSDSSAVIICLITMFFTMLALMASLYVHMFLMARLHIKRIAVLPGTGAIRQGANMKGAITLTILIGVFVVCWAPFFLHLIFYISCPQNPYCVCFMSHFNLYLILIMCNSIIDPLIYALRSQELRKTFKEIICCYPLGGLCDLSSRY
Method in brief: as §1

[5] = target: T5, Human melanocortin (MC5) (Homo sapiens, UniProt P33032); assay: Radioligand binding, human melanocortin MC5 membranes, FlashPlate, [125I]-NDP-αMSH; conditions: compound at 10 μM, [125I]-NDP-αMSH
T5 construct: purchased Perkin Elmer Biosignal
T5 sequence (P33032 whole entry): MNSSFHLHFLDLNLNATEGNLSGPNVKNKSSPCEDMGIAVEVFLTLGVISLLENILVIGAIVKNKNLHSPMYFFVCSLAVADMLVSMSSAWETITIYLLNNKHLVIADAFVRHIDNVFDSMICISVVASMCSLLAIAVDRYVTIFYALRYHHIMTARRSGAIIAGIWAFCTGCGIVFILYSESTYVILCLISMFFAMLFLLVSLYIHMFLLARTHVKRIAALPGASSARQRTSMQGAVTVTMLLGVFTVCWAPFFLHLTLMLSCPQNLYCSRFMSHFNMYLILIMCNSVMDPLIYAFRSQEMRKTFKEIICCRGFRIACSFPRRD
Method in brief: as §1

[6] = target: T6, Human melanin-concentrating hormone (MCH1) (Homo sapiens, UniProt Q99705); assay: Radioligand binding, human melanin-concentrating hormone MCH1 membranes, FlashPlate, [125I]-S36057; conditions: compound at 10 μM
T6 construct: purchased Perkin Elmer Biosignal
T6 sequence (Q99705 whole entry): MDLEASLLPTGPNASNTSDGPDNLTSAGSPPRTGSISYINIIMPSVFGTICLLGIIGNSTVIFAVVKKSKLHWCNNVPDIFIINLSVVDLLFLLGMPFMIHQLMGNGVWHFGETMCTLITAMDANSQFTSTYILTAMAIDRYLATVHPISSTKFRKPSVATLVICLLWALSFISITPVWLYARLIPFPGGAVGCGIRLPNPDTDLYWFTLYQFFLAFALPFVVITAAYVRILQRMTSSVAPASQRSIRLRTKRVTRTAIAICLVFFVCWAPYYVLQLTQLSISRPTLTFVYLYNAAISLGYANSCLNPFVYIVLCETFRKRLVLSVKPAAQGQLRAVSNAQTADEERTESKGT
Method in brief: as §1

[7] = target: T7, Human μ-opioid (MOP) (Homo sapiens, UniProt P35372); assay: Radioligand binding, human μ-opioid (MOP) membranes, FlashPlate, [3H]-Naloxone; conditions: compound at 10 μM, [3H]-Naloxone
T7 construct: purchased Perkin Elmer Biosignal
T7 sequence (P35372 whole entry): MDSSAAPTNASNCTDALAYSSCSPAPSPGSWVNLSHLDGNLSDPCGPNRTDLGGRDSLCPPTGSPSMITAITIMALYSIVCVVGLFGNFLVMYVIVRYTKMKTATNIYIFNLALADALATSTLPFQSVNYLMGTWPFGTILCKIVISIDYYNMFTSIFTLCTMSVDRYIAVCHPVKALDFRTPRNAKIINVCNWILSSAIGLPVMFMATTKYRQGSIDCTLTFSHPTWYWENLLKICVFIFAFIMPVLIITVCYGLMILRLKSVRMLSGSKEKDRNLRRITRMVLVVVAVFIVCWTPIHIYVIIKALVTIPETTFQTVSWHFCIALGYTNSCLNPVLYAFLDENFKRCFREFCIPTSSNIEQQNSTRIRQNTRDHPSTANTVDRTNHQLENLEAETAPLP
Method in brief: as §1

[8] = target: T8, Human neurokinin (NK1) (Homo sapiens, UniProt P25103); assay: Radioligand binding, human neurokinin NK1 membranes, filtration, [125I]-Substance P; conditions: compound at 10 μM, [125I]-Substance P
T8 construct: purchased Perkin Elmer Biosignal
T8 sequence (P25103 whole entry): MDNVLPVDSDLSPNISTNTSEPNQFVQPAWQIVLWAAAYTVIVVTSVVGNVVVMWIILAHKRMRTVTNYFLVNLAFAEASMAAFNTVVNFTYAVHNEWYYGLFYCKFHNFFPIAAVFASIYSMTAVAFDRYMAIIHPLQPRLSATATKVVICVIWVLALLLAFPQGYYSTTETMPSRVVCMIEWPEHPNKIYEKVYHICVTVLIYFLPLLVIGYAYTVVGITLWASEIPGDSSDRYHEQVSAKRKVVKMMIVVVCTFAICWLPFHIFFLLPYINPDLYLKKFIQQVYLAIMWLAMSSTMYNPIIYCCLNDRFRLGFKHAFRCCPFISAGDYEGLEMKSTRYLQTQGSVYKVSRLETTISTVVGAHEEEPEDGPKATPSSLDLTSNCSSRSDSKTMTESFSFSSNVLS
Method in brief: as §2

[9] = target: T9, Human neuropeptide Y (NPY-Y1) (Homo sapiens, UniProt P25929); assay: Radioligand binding, human neuropeptide Y NPY-Y1 membranes, FlashPlate, [125I]-PYY; conditions: compound at 10 μM, [125I]-PYY
T9 construct: purchased Perkin Elmer Biosignal
T9 sequence (P25929 1-384): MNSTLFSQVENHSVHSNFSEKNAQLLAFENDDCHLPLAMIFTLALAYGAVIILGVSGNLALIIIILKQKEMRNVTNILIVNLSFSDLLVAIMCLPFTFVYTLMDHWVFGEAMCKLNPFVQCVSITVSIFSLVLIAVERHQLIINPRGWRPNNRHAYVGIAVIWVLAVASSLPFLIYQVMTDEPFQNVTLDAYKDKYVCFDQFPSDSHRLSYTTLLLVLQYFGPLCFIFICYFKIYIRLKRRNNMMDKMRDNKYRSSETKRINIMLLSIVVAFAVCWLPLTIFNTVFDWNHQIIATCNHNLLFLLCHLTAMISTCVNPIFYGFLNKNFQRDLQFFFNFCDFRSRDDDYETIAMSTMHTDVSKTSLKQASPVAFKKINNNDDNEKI
Method in brief: as §1

[10] = target: T10, Human opioid (ORL1) (Homo sapiens, UniProt P41146); assay: Radioligand binding, human opioid ORL1 membranes, FlashPlate, [125I]-Nociceptin; conditions: compound at 10 μM, [125I]-Nociceptin
T10 construct: purchased Perkin Elmer Biosignal
T10 sequence (P41146 whole entry): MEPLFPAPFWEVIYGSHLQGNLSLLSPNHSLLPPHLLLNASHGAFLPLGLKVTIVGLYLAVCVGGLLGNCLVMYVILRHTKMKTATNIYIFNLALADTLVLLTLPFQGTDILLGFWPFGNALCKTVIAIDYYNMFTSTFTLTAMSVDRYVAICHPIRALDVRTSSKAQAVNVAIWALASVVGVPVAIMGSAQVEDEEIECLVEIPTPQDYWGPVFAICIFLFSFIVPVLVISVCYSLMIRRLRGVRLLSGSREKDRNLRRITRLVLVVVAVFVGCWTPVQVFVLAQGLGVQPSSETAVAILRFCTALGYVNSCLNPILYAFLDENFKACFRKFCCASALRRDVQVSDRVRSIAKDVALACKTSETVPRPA
Method in brief: as §1

[11] = target: T11, Mouse urotensin (mUR2) (Mus musculus, UniProt Q8VIH9); assay: Radioligand binding, mouse urotensin mUR2 membranes, FlashPlate, [125I]-Urotensin II; conditions: compound at 10 μM, [125I]-Urotensin II
T11 construct: purchased Perkin Elmer Biosignal
T11 sequence (Q8VIH9 1-385): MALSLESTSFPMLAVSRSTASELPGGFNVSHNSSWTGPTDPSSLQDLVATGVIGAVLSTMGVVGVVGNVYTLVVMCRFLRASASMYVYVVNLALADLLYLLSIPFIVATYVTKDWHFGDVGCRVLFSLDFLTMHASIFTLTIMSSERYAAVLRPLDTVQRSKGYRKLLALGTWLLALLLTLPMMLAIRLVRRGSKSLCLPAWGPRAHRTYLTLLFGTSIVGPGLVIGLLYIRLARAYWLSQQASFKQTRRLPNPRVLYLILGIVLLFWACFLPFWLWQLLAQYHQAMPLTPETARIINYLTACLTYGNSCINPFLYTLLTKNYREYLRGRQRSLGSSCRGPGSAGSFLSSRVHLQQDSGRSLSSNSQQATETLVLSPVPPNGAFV
Method in brief: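 Cloned mouse urotensin (mUR2) receptor membranes from Perkin Elmer Biosignal were immobilized in FlashPlate microplates using a proprietary coating. Each well got 19.5 μl buffer, then 0.5 μl of DMSO, reference ligand, or compound. Adding 5 μl of [125I]-Urotensin II, diluted to 5× final concentration in binding buffer, started binding. Plates were sealed with TopSeal-A and incubated 1 hour at room temperature in the dark. Wells were counted for 30 seconds each on a TopCount after a 60-second delay, and percentage inhibition was calculated.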

[12] = [125I]-S36057, human MCH1 membranes

T1 sequence (P41143 whole entry): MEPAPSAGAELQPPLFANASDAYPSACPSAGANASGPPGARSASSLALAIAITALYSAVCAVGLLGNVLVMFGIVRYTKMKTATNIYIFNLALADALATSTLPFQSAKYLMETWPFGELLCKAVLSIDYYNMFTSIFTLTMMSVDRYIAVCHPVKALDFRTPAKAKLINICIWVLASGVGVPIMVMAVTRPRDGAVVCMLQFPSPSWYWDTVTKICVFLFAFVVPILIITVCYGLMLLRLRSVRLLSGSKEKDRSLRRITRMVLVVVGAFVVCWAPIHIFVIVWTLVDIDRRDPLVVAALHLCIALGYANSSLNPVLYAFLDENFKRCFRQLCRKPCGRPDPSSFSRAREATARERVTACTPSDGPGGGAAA

Compound	A1: inhibition of radioligand binding ([1]; human DOP membranes)	A2: inhibition of radioligand binding ([2]; human KOP membranes)	A3: inhibition of radioligand binding ([3]; human MC3 membranes)	A7: inhibition of radioligand binding ([7]; human MOP membranes)	A8: inhibition of radioligand binding ([8]; human NK1 membranes)	A9: inhibition of radioligand binding ([9]; human NPY-Y1 membranes)	A10: inhibition of radioligand binding ([10]; human ORL1 membranes)	A11: inhibition of radioligand binding ([11]; mouse mUR2 membranes)	A1: inhibition of radioligand binding ([1]; FlashPlate)	A2: inhibition of radioligand binding ([2]; filtration)	A3: inhibition of radioligand binding ([3]; FlashPlate)	A4: inhibition of radioligand binding ([4]; FlashPlate)	A5: inhibition of radioligand binding ([5]; FlashPlate)	A6: inhibition of radioligand binding ([6]; [125I]-S36057, FlashPlate)	A7: inhibition of radioligand binding ([7]; FlashPlate)	A8: inhibition of radioligand binding ([8]; filtration)	A9: inhibition of radioligand binding ([9]; FlashPlate)	A10: inhibition of radioligand binding ([10]; FlashPlate)	A11: inhibition of radioligand binding ([11]; FlashPlate)	A4: inhibition of radioligand binding ([4]; human MC4 membranes)	further results
NCCC(=O)N[C@H]1C(OCc2ccc3ccccc3c2)O[C@H](COCc2ccccc2)[C@@H](O)[C@@H]1OCc1ccc(Cl)cc1 (stereo partly shown) [compound 438]	− (“−” indicates less than 50% inhibition at 10 μM)	− (“−” indicates less than 50% inhibition at 10 μM)	− (“−” indicates less than 50% inhibition at 10 μM)	− (“−” indicates less than 50% inhibition at 10 μM)	+ (“+” indicates greater than 50% inhibition at 10 μM)	− (“−” indicates less than 50% inhibition at 10 μM)	− (“−” indicates less than 50% inhibition at 10 μM)	− (“−” indicates less than 50% inhibition at 10 μM)													A4: inhibition of radioligand binding ([4]; human MC4 membranes, 10 µM): − (“−” indicates less than 50% inhibition at 10 μM); A5: inhibition of radioligand binding ([5]; human MC5 membranes, 10 µM): − (“−” indicates less than 50% inhibition at 10 μM); A6: inhibition of radioligand binding ([6]; [125I]-S36057, human MCH1 membranes, 10 µM): + (“+” indicates greater than 50% inhibition at 10 μM)
CSC1OC(COCc2ccccc2)C(O)C(OCc2ccc(Cl)cc2)C1NC(=O)CCN (stereo not shown) [compound 266]									− (“−” indicates less than 50% inhibition at 10 μM)	− (“−” indicates less than 50% inhibition at 10 μM)	− (“−” indicates less than 50% inhibition at 10 μM)	− (“−” indicates less than 50% inhibition at 10 μM)	− (“−” indicates less than 50% inhibition at 10 μM)	− (“−” indicates less than 50% inhibition at 10 μM)	− (“−” indicates less than 50% inhibition at 10 μM)	+ (“+” indicates greater than 50% inhibition at 10 μM)	− (“−” indicates less than 50% inhibition at 10 μM)	− (“−” indicates less than 50% inhibition at 10 μM)	− (“−” indicates less than 50% inhibition at 10 μM)		
N=C(N)NCCC(=O)NC1C(OCc2ccc(Cl)cc2)OC(COCc2ccccc2)C(O)C1OCc1ccc2ccccc2c1 (stereo not shown) [compound 430]	− (“−” indicates less than 50% inhibition at 10 μM)	− (“−” indicates less than 50% inhibition at 10 μM)	+ (“+” indicates greater than 50% inhibition at 10 μM)	− (“−” indicates less than 50% inhibition at 10 μM)	+ (“+” indicates greater than 50% inhibition at 10 μM)	− (“−” indicates less than 50% inhibition at 10 μM)	+ (“+” indicates greater than 50% inhibition at 10 μM)	− (“−” indicates less than 50% inhibition at 10 μM)												+ (“+” indicates greater than 50% inhibition at 10 μM)	A5: inhibition of radioligand binding ([5]; human MC5 membranes): + (“+” indicates greater than 50% inhibition at 10 μM); A6: inhibition of radioligand binding [6, 12]: + (“+” indicates greater than 50% inhibition at 10 μM)
N=C(N)NCCC(=O)NC1C(OCc2ccc(-c3ccccc3)cc2)OC(COCc2ccccc2)C(O)C1OCc1ccc(Cl)cc1 (stereo not shown) [compound 409]	− (“−” indicates less than 50% inhibition at 10 μM)	− (“−” indicates less than 50% inhibition at 10 μM)	+ (“+” indicates greater than 50% inhibition at 10 μM)	− (“−” indicates less than 50% inhibition at 10 μM)	+ (“+” indicates greater than 50% inhibition at 10 μM)	− (“−” indicates less than 50% inhibition at 10 μM)	+ (“+” indicates greater than 50% inhibition at 10 μM)	− (“−” indicates less than 50% inhibition at 10 μM)												+ (“+” indicates greater than 50% inhibition at 10 μM)	A5: inhibition of radioligand binding ([5]; human MC5 membranes): + (“+” indicates greater than 50% inhibition at 10 μM); A6: inhibition of radioligand binding [6, 12]: + (“+” indicates greater than 50% inhibition at 10 μM)
COCC1OC(OCCc2ccccc2)C(NC(=O)CCCNC(=N)N)C(OCc2ccccc2)C1O (stereo not shown) [compound 218]									− (“−” indicates less than 50% inhibition at 10 μM)	− (“−” indicates less than 50% inhibition at 10 μM)	− (“−” indicates less than 50% inhibition at 10 μM)	− (“−” indicates less than 50% inhibition at 10 μM)	− (“−” indicates less than 50% inhibition at 10 μM)	− (“−” indicates less than 50% inhibition at 10 μM)	− (“−” indicates less than 50% inhibition at 10 μM)	+ (“+” indicates greater than 50% inhibition at 10 μM)	− (“−” indicates less than 50% inhibition at 10 μM)	− (“−” indicates less than 50% inhibition at 10 μM)	− (“−” indicates less than 50% inhibition at 10 μM)		
